Measured values published in patent publication US4596789A, “Proline derivatives” (ICI Americas Inc., priority 1983, dated 1986).
Starred links: 1 amine or outer side, 2 acyl side, 3 side chain; linkers in the order of their positions; H or OH if unused. Non-standard residues stand in square brackets, D forms with d. Residues, ends and D or L forms follow the SMILES beside them. *: point of attachment. Suc = O=C(CCC(=O)[*:2])[*:1]; MeOSuc = COC(=O)CCC(=O)*; Cbz = O=C(OCc1ccccc1)*; Boc = CC(C)(C)OC(=O)*; CO = O=C([*:1])[*:2]

How the values were obtained:
[1] = biological target: T1, human leukocyte elastase (HLE) (Homo sapiens, UniProt P08246); experiment: Inhibition of human leukocyte elastase acting on a peptide p-nitroanilide substrate, Ki from Dixon plot; format: biochemical; conditions: room temperature; 16.6% (v/v) DMSO, pH 8.1; substrate methoxysuccinyl-alanyl-alanylprolyl-valine-p-nitroanilide 1.6×10^-4 molar; read-out: Ki, dissociation constant of the inhibitor-HLE complex
T1 construct: The HLE enzyme used in these studies may be obtained according to B. R. Viscarello et al. in Preparative Biochemistry, Vol. 13 (1983); from tissue; The enzyme was isolated by a cited preparative procedure. b8 says HLE is released from the granules of polymorphonuclear leukocytes
T1 sequence (P08246 30-267): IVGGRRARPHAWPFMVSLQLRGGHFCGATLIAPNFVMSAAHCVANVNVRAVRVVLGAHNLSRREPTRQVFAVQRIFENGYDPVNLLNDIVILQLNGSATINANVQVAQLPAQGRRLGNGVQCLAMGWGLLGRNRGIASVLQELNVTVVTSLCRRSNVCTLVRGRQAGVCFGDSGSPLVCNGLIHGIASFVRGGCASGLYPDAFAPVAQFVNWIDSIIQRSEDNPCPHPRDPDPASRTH
Procedure: The potency of compounds of the invention to act as elastase inhibitors was determined by the ability of a compound of the invention to inhibit the action of human leukocyte elastase (HLE) on a low molecular weight peptide substrate. The potency of an inhibitor is evaluated by obtaining a kinetic determination of the dissociation constant, Ki, of the complex formed from the interaction of the inhibitor with HLE. The substrate used was the anilide methoxysuccinyl-alanyl-alanylprolyl-valine-p-nitroanilide as described by K. Nakajima et al. in The Journal of Biological Chemistry, Vol. 254, pages 4027-4032 (1979) and by T. Teshima et al. in The Journal of Biological Chemistry, Vol. 257, No. 9, pages 5085-5091 (1982). The HLE enzyme used in these studies may be obtained according to B. R. Viscarello et al. in Preparative Biochemistry, Vol. 13 (1983).
From HLE enzyme obtained as described in the Viscarello et al reference, a standard rate of production of p-nitroaniline was measured at room temperature spectrophotometrically in the visible spectrum at 410 nanometers, with automatic data acquisition in a Cary 210-Apple III Plus microcomputer system obtained from Varian Associates. Reactions were initiated by injection of a small aliquot (50 or 100 microliters) of a stock solution of the anilide substrate in DMSO into a curvette containing buffer and HLE enzyme. The amount of HLE used is sufficient to produce an initial velocity of about 0.01 OD (optical density) per minute. Final volume was 3.0 ml. Initial velocities of production of p-nitroaniline were determined from linear regression analysis of at least 30 data points (OD410 vs. time) taken during the initial, linear, portion of the reaction. The initial velocity for the HLE sample without any inhibitor being present was obtained and used as a standard for the subsequent determination of the initial velocity of the reaction in the presence of an inhibitor to be tested. The Ki value of a particular inhibitor was determined as follows. To a 3 ml cuvette were added […] of a buffer (9 millimolar sodium phosphate, 10% DMSO (v/v), pH=7.9), 100 microliters of inhibitor solution in DMSO and 20 microliters of HLE stock solution at the same concentration used in the control. After the inhibitor and enzyme solution had equilibrated, the reaction was initiated by the addition of 100 microliters of the stock substrate solution in DMSO. The final solution was 16.6% (v/v) in DMSO, with pH 8.1. The substrate was at an initial concentration of 1.6×10^-4 molar. […]

[2] = Pharmacokinetics: serum level of inhibitor after subcutaneous injection; format: in vivo, Male Syrian hamsters; conditions: serum inhibitor concentration vs time
Procedure: Pharmacokinetics: Male Syrian hamsters (80 to 120) g) are injected subcutaneously with the test compound. Prior to injection and at varying time periods thereafter they are lightly anesthetized with ether and blood samples of approximately 0.2 ml each are withdrawn by cardiac puncture. The blood is expressed into 2 ml centrifuge tubes and allowed to clot for one hr. The sample is then centrifuged and the serum removed. Blood samples are taken before (time 0) and 15, 30, 60, 90 and 120 minutes after subcutaneous administration of the test compound in an appropriate vehicle.
Drug levels are determined by first inactivating endogenous elastase inhibitors by incubation of 50 microliters of serum with an equal volume of buffer containing 5 mg/ml bovine pancreatic trypsin for 5 min. […] After an additional 2 min. incubation, the reaction is started by the addition of substrate (100 microliters) (MeOSuc-Ala-Ala-Pro-Val-pNA, 1.6 mM) and the reaction monitored spectrophotometrically at a wavelength of 410 nm. Serum concentrations of the test compounds are determined by the following equation: [formula] where [I], [E] and [S] are the assay concentrations of inhibitor enzyme and substrate respectively, Ki is the inhibition constant of the inhibitor being assayed, Km is the Michaelis constant of the substrate, Vo is the control uninhibited reaction velocity, and Vi is the inhibited reaction velocity. […]

human leukocyte elastase = biological target: T2, human leukocyte elastase (Homo sapiens, UniProt P08246); conditions: reported by Szabo et al. 1982, cited from earlier work
T2 sequence (P08246 30-267): T1 sequence (P08246 30-267)

Compound | Ki [1] [nM] | activity in animals as measured by the pharmacokinetics test [2] | stronger inhibition than the other four aldehydes (human leukocyte elastase) | Ki (human leukocyte elastase; read-out: Ki (HLE inhibition)) [nM]
CC(C)[C@H](NC(=O)[C@H](CCCCNC(=O)OCc1ccccc1)NC(=O)CCC(=O)O)C(=O)N1CCC[C@H]1C(=O)N[C@H](C=O)C(C)C [Example 5b, N-alpha-Succinyl-N-epsilon-benzyloxycarbonyl-L-lysyl-L-valyl-L-prolyl-L-va linal] (Suc-K(Cbz)VPV-aldehyde) | 30 | good activity in animals |  | 
COC(=O)[C@H](CC(C)C)NC(=O)N[C@H](C(=O)N1CCC[C@H]1C(=O)N[C@H](C=O)C(C)C)C(C)C [Example 32g, N-[1(S)-Carbomethoxy-3-methylbutyl]carbamoyl-L-valyl-L-prolyl-L-valinal] ({OMe-Leu-CO}-Val-Pro-Val-aldehyde) | 94 |  |  | 
CC(C)[C@@H](C=O)NC(=O)[C@@H]1CCCN1C(=O)[C@@H](Cc1ccccc1)NC(=O)CCC(=O)O [N-succinyl-D-phenylalanyl-L-prolyl-L-valinal] (Suc-[dF]-Pro-Val-aldehyde) |  |  | 10-100 times | 40000

Second part, led by results:

Ki [1] [nM] | activity in animals as measured by the pharmacokinetics test [2] | Compound | stronger inhibition than the other four aldehydes (human leukocyte elastase) | Ki (human leukocyte elastase; read-out: Ki (HLE inhibition)) [nM]
15 |  | CC(C)[C@H](NC(=O)[C@H](CCCCNC(=O)OCc1ccccc1)NC(=O)OC(C)(C)C)C(=O)N1CCC[C@H]1C(=O)N[C@H](C=O)C(C)C [Example 1f, N-alpha-t-Butyloxycarbonyl-N-epsilon-benzyloxycarbonyl-L-lysyl-L-valyl-L-p rolyl-L-valinal] (Boc-K(Cbz)VPV-aldehyde) |  | 
6 |  | COC(=O)CCC(=O)N[C@@H](CCCCNC(=O)OCc1ccccc1)C(=O)N[C@H](C(=O)N1CCC[C@H]1C(=O)N[C@H](C=O)C(C)C)C(C)C [Example 8b, N-alpha-Methoxysuccinyl-N-epsilon-benzyloxycarbonyl-L-lysyl-L-valyl-L-prol yl-L-valinal] (MeOSuc-K(Cbz)VPV-aldehyde) |  | 
